Data as given in the supplement of paper PMC12076712.

How the values were obtained:
Test in all cases: pIC50, kinobeads binding competition
Conditions in all cases: cell material: Jurkat lysate
[1] = biological target: T1, UniProt O15111
T1 sequence (whole entry): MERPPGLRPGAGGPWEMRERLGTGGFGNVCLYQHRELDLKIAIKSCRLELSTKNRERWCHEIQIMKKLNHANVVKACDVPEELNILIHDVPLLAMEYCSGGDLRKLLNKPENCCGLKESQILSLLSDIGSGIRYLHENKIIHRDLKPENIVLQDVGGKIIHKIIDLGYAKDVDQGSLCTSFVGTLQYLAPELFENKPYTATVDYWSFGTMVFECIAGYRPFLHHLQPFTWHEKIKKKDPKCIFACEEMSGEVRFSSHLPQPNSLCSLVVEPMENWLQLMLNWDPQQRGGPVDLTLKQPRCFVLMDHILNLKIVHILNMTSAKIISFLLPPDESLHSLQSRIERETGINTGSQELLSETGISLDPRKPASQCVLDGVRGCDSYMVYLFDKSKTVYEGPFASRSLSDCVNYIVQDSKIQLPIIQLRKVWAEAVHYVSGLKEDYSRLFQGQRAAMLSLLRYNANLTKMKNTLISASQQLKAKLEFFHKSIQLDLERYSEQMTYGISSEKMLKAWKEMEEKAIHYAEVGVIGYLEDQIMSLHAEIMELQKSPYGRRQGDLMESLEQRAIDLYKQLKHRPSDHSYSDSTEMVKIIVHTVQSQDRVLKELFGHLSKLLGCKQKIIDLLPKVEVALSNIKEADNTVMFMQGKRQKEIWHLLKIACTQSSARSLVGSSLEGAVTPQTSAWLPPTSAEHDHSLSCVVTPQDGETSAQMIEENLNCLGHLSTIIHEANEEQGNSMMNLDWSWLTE

[2] = biological target: UniProt Q9BVS4
[3] = biological target: ARAF (UniProt P10398)
[4] = biological target: T2, RIOK1 (UniProt Q9BRS2)
T2 sequence (whole entry): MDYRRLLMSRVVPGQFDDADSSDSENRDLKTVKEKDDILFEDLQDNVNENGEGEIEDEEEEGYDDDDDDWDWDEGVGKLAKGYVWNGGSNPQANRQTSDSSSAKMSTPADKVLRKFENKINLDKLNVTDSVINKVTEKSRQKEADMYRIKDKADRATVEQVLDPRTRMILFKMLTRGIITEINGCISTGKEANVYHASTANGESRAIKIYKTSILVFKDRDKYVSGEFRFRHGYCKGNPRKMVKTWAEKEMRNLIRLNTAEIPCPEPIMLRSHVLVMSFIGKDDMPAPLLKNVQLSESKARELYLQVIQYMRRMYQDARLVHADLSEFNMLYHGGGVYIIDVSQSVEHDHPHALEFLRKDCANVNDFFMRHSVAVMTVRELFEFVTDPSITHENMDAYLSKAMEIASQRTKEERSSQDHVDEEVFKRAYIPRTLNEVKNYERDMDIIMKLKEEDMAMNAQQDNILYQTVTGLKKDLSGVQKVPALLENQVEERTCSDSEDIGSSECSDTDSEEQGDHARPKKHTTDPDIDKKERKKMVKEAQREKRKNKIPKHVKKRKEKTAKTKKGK

[5] = biological target: JAK1 (UniProt P23458)
[6] = biological target: UniProt P23443
[7] = biological target: T3, BMPR2 (UniProt Q13873)
T3 sequence (whole entry): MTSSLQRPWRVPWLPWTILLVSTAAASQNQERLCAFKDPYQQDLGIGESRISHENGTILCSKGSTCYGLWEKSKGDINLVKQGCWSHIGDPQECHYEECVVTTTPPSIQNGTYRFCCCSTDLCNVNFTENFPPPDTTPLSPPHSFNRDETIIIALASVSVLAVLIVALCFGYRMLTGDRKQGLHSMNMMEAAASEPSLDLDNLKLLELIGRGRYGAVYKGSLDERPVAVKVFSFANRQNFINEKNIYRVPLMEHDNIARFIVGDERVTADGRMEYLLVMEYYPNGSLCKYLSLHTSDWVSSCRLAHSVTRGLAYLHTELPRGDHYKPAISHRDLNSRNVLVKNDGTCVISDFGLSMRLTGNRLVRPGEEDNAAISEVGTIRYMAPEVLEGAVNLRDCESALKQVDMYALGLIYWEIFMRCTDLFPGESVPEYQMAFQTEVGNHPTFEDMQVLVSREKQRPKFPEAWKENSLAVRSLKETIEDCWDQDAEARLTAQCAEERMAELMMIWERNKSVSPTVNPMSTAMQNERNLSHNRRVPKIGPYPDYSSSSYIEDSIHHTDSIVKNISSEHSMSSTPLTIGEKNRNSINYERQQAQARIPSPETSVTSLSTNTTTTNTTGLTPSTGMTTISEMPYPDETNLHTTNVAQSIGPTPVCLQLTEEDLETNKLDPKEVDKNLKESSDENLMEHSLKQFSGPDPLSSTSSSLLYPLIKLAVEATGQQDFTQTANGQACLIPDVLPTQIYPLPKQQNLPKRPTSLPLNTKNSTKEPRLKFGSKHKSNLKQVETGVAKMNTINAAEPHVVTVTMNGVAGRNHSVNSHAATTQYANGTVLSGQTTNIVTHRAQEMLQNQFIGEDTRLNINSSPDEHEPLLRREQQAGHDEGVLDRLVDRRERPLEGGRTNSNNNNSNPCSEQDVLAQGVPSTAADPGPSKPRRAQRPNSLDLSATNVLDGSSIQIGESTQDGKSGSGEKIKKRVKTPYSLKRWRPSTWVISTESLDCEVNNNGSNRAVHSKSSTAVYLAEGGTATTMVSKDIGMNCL

[8] = biological target: BMPR1A (UniProt P36894)
[9] = biological target: RIPK3 (UniProt Q9Y572)
[10] = biological target: TYK2 (UniProt P29597)

Measured: pIC50

UniProt P23443, sequence (P23443 whole entry, looked up): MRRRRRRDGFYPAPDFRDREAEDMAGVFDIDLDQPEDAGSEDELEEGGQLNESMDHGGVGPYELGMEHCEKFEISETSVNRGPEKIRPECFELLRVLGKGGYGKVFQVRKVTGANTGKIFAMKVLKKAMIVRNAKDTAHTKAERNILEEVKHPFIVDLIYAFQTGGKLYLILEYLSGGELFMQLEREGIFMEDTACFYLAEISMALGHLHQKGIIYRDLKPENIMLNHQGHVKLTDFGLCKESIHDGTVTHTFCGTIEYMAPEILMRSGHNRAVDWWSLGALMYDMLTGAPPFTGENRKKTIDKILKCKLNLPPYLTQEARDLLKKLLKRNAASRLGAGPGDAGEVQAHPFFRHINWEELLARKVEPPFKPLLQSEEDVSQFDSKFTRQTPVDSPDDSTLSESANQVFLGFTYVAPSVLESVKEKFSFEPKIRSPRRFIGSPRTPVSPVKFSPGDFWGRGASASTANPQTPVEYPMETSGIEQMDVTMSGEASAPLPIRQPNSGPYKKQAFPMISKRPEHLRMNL
UniProt Q9BVS4, sequence (Q9BVS4 whole entry, looked up): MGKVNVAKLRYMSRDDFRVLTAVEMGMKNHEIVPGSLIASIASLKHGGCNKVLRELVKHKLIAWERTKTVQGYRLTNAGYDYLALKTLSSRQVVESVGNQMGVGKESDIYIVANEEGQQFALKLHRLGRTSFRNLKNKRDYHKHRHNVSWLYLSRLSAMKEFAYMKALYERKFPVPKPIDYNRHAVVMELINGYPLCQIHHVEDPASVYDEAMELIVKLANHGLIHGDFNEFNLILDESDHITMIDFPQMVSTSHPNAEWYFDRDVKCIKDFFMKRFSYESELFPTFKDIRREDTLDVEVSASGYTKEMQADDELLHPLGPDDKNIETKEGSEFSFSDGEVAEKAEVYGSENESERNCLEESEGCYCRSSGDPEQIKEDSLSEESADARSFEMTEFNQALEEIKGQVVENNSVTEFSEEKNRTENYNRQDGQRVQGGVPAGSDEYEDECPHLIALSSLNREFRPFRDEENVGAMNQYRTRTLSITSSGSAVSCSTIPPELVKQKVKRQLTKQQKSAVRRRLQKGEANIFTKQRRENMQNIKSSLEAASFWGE
ARAF, sequence (P10398 whole entry): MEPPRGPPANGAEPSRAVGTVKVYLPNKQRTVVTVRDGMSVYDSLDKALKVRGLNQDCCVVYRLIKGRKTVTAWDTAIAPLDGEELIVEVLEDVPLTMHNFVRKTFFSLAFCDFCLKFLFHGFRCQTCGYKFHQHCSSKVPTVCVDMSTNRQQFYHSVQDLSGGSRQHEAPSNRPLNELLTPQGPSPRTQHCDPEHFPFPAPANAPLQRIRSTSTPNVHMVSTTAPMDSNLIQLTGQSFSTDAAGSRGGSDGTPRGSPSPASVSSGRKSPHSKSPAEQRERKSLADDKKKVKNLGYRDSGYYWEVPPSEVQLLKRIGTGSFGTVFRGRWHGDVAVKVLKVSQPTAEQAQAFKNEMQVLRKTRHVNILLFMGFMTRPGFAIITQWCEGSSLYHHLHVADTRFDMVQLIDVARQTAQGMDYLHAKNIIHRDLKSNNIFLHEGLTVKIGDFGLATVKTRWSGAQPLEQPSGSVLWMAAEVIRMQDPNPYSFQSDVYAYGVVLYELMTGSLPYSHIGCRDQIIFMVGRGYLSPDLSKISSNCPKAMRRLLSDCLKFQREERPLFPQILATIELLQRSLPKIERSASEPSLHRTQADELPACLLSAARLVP
JAK1, sequence (P23458 whole entry): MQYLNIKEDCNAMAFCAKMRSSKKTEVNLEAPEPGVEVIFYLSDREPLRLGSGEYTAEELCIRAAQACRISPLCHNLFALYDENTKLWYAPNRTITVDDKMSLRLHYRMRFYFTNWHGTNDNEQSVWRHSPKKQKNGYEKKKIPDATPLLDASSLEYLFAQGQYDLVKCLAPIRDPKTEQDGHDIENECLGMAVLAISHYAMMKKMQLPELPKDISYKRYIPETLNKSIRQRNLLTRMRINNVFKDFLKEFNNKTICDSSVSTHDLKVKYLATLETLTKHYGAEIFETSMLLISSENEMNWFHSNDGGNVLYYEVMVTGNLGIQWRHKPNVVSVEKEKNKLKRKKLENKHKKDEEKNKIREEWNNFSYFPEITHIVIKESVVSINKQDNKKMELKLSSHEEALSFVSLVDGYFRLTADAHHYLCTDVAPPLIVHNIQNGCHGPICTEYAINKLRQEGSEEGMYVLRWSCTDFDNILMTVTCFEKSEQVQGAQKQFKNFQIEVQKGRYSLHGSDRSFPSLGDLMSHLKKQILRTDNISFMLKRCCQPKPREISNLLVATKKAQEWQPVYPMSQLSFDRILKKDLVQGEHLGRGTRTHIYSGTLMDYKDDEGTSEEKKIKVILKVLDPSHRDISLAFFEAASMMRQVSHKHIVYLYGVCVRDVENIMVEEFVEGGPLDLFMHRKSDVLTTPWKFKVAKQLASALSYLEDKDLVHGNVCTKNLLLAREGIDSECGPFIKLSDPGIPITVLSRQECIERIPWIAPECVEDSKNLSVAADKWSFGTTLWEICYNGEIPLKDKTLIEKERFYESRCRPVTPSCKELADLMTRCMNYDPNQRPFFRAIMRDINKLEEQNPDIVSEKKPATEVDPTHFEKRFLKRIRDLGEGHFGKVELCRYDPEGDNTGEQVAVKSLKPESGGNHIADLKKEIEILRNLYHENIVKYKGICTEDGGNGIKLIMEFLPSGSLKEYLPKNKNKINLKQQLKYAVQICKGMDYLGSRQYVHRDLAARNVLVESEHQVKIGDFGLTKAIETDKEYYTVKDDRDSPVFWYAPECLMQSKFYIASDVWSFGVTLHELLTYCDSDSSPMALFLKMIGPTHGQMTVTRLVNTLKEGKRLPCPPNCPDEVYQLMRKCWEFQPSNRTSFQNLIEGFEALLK
BMPR1A, sequence (P36894 whole entry): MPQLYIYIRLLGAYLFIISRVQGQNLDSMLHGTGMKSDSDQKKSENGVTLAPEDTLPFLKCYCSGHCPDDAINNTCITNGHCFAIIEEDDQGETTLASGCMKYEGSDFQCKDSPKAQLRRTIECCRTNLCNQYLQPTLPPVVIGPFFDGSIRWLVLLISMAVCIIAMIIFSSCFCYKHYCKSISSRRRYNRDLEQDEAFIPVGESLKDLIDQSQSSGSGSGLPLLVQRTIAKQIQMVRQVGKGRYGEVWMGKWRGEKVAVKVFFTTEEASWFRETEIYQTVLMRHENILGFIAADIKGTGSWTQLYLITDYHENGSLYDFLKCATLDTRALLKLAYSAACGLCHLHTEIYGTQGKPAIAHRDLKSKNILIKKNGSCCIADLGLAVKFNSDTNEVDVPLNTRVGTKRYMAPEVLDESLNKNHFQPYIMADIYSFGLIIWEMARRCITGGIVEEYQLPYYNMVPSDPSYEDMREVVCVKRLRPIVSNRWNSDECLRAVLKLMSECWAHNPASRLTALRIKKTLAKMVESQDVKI
RIPK3, sequence (Q9Y572 whole entry, looked up): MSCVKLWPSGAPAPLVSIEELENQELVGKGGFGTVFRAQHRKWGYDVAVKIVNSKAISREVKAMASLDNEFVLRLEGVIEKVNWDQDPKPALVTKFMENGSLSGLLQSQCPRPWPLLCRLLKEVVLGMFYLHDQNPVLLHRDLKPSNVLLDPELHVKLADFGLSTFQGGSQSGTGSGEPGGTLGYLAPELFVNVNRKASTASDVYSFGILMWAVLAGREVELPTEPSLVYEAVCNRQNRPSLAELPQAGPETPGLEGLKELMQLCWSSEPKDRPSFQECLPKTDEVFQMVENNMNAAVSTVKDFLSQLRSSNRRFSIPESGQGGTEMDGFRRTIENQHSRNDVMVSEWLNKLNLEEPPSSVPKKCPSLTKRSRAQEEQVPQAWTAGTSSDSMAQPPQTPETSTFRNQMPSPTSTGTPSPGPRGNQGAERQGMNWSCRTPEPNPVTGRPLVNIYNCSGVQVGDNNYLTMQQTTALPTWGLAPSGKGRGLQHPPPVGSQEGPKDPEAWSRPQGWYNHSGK
TYK2, sequence (P29597 whole entry): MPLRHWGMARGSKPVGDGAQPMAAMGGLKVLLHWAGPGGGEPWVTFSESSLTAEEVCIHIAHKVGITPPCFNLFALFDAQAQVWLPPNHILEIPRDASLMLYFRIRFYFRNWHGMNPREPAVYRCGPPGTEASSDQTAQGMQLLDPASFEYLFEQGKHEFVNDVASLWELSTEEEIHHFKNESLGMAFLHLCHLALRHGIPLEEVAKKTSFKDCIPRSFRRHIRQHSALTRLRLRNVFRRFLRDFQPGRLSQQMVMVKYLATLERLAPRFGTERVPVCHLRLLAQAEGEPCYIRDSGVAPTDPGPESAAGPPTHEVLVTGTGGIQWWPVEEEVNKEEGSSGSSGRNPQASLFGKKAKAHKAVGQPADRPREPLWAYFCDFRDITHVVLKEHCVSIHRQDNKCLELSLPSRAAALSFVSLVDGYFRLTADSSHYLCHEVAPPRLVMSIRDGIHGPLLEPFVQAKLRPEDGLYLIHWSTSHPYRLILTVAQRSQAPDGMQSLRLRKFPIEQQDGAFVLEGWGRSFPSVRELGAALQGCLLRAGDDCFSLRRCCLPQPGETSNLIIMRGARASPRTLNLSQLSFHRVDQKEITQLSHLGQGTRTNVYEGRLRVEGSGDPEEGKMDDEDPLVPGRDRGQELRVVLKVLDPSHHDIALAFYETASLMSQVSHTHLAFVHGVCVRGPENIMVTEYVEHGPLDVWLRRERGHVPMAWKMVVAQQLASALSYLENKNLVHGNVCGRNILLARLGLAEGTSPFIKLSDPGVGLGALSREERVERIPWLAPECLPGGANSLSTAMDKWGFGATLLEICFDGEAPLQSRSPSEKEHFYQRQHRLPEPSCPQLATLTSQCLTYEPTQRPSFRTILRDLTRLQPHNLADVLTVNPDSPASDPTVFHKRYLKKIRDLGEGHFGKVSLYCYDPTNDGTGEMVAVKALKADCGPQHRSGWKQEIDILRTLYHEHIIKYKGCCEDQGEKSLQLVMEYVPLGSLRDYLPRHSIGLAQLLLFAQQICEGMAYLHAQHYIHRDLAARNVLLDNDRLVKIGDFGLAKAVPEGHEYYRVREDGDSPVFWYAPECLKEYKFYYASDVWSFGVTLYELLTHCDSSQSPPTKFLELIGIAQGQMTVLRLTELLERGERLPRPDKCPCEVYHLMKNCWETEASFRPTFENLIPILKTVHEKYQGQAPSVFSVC

CCc1cnn2c(NCc3ccc[n+]([O-])c3)cc(N3CCCC[C@H]3CCO)nc12 [dinaciclib]
< 4.52: all assays above
